In patent US5852049A, “Aromatic ethers derived from indoles which are useful as medicaments” (Pierre Fabre Medicament, priority 1994, dated 1998):
Where a name gives a salt, the structure may show the parent alone. Read-outs that look alike come from different tables or passages of the source.

Legend:
[1] = system: rabbit saphenous vein; experiment: contraction of the rabbit saphenous vein rings mediated by the 5HT1-like receptors; format: cell-based; conditions: Oryctolagus cuniculus; for Emax: read-out: Relative Emax; for EC50: read-out: pD2 (converted)
Excerpt: The derivatives of the present invention are, in addition, capable, like serotonin, of inducing the contraction of the rabbit saphenous vein rings mediated by the "5HT1-like " receptors.
The technique used was adapted from Van Heuven-Nolsen D. et al., Eur. J. Pharmacol. 191, 375-382 (1990) and from Martin G. R. and Mc Lennan S. J., Naunyn-Schmiedeberg's Arch. Pharmacol. 342, 111-119 (1990) and therefore makes it possible to determine a pD2 value and an Emax relative to serotonin for each product tested.

[2] = molecular target: T1, human 5HT1Dα (Homo sapiens, UniProt P28221); experiment: binding to human 5HT1Dα receptor
T1 construct: expressed in transfected cells; host or cells: Cos-7 and CHO-K1
T1 sequence (P28221 whole entry): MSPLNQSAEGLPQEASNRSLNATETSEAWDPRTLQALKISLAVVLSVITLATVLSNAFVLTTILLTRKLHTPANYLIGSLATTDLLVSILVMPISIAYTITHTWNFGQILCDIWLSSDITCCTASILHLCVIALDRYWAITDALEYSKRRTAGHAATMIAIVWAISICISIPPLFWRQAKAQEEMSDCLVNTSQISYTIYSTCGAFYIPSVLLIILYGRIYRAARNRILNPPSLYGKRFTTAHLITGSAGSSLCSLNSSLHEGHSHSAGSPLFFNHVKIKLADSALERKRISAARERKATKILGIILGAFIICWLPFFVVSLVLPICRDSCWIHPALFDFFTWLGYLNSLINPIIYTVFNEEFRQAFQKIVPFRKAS
Protocol: (§1) The study of the binding of the derivatives of the present invention with the human 5HT1Dα, 5HT1Dβ and 5HT1A receptors was carried out according to the method described by P. Pauwels and C. Palmier (Neuropharmacology, 33, 67, 1994).
(§2) The incubation media for these binding measurements comprise 0.4 ml of cell membrane preparation, 0.05 ml of a tritiated ligand [[3H]-5CT (final concentration: 2 nM) for the 5HT1Dα and 5HT1Dβ receptors and [3H]-8OH-DPAT (final concentration: 1 nM) for the 5HT1A receptor] and 0.05 ml of the molecule to be tested (final concentrations: 0.1 to 1000 nM) or 10 μM (final concentration) of serotonin (5HT1Dα and 5HT1Dβ) or 1 μM (final concentration)of spiroxatrine (5HT1A).

[3] = molecular target: T2, human 5HT1Dβ (Homo sapiens, UniProt P28222); experiment: binding to human 5HT1Dβ receptor
T2 construct: expressed in transfected cells; host or cells: Cos-7 and CHO-K1
T2 sequence (P28222 whole entry): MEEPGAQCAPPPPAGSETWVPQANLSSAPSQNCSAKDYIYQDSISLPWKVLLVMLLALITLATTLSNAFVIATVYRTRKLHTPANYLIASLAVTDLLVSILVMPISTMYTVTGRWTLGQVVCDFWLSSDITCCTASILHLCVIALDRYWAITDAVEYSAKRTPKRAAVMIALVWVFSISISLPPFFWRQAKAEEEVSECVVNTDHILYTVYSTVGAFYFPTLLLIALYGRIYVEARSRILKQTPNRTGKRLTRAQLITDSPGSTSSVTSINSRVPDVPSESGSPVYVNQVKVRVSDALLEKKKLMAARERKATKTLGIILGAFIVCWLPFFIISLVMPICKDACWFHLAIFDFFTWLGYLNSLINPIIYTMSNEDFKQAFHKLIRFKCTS
Protocol: as §1, §2

[4] = molecular target: T3, human 5HT1A (Homo sapiens, UniProt P08908); experiment: binding to human 5HT1A receptor (HeLa HA7 cell line)
T3 construct: expressed in transfected cells; host or cells: HeLa HA7
T3 sequence (P08908 1-422): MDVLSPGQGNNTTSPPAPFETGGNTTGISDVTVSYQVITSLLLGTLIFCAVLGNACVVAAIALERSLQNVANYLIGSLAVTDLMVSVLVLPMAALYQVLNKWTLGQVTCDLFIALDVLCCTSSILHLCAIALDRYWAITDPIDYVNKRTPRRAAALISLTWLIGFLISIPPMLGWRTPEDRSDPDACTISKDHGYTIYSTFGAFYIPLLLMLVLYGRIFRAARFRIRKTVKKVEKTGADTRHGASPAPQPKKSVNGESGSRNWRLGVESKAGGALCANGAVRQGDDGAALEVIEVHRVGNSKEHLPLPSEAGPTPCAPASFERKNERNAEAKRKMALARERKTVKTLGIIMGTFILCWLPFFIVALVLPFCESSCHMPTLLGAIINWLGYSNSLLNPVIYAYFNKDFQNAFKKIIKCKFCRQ
Excerpt: The HeLa HA7 cell line expressing the human 5HT1A receptor was obtained from Tulco (Duke Univ., Durham, N.C., USA) and cultured according to the method of Fargin et al., J. Biol. Chem. 264, 14848 (1989).
Palmier (Neuropharmacology, 33, 67, 1994).

[5] = contraction of the rabbit saphenous vein
[6] = human receptor, [3H]-5CT 2 nM, read-out: Ki 5HT1Dβ
[7] = human receptor, HeLa HA7, [3H]-8OH-DPAT 1 nM, read-out: Ki 5HT1A
[8] = Emax of the compound relative to Emax of serotonin

| SMILES | Emax [1] | EC50 [1, 5] | Ki [2] | Ki [3] | Ki [4] | other results |
| --- | --- | --- | --- | --- | --- | --- |
| CCOC(=O)CCCOc1ccc2[nH]cc(CCN)c2c1 [Example 12, Ethyl 4-[3-(2-aminoethyl)-1H-indol-5-yloxy)-butyrate hydrochloride] | 80% | 692 nM | – | – | – | – |
| CCOC(=O)CCCCOc1ccc2[nH]cc(CCN)c2c1 [Example 13, Ethyl 5-[3-(2-aminoethyl)-1H-indol-5-yloxy]pentanoate hydrochloride] | 120% | 309 nM | – | – | – | – |
| CC(C)OC(=O)CCCCCOc1ccc2[nH]cc(CCN)c2c1 [Example 16, Isopropyl 6-[3-(2-aminoethyl)-1H-indol-5-yloxy]hexanoate hydrochloride] | 136% | 240 nM | 1.5 nM | 0.7 nM | 9 nM | – |
| N#CCCCCCOc1ccc2[nH]cc(CCN)c2c1 [Example 17, 6-[3-(2-Aminoethyl)-1H-indol-5-yloxy]hexanitrile hydrochloride] | – | – | 2.2 nM | – | – | Ki [3, 6]: 2.6 nM; Ki [4, 7]: 24.3 nM |
| NCCCCCCOc1ccc2[nH]cc(CCN)c2c1 [Example 18, 6-[3-(2-Aminoethyl)-1H-indol-5-yloxy]hexylamine hydrochloride] | – | – | 2.4 nM | 2 nM | 78.6 nM | – |
| CS(=O)(=O)NCCCCCCOc1ccc2[nH]cc(CCN)c2c1 [Example 19, N-{6-[3-(2-Aminoethyl)-1H-indol-5-yloxy]hexyl}methanesulfonamide hydrochloride] | 100% | – | 1.1 nM | 0.7 nM | 11.5 nM | EC50 [1]: 15.8 nM |
| CCNC(=O)CCCCCOc1ccc2[nH]cc(CCN)c2c1 [Example 20, 6-[3-(2-Aminoethyl)-1H-indol-5-yloxy]-N-ethylhexanamide hydrochloride] | – | – | – | – | – | Ki ([2]; read-out: Ki 5HT1Dα, human receptor, [3H]-5CT 2 nM): 2 nM; Ki ([3]; read-out: Ki 5HT1Dβ, human receptor, [3H]-5CT 2 nM): 1.1 nM; Ki ([4]; read-out: Ki 5HT1A, human receptor, HeLa HA7, [3H]-8OH-DPAT 1 nM): 46.5 nM |
| CC(=O)OCCCCOc1ccc2[nH]cc(CCN)c2c1 [Example 23, 4-[3-(2-Aminoethyl)-1H-indol-5-yloxy]butylacetate hydrochloride] | – | – | 0.9 nM | 0.4 nM | 40 nM | – |
| CNS(=O)(=O)CCc1ccc2[nH]cc(C3CCN(C)CC3)c2c1 [Naratriptan, reference compound] | – | 2880 nM | – | – | – | Ki ([2]; human receptor, [3H]-5CT 2 nM, read-out: Ki 5HT1Dα): 1.6 nM; Ki [3, 6]: 2 nM; Ki [4, 7]: 46 nM; Emax [1, 8]: 100% |
| CNS(=O)(=O)Cc1ccc2[nH]cc(CCN(C)C)c2c1 [Sumatriptan, reference compound] | – | 1780 nM | – | – | – | Emax [1, 8]: 126% |
